Experimental data from patent US20150290200A1, “INTRACELLULAR KINASE INHIBITORS” (Pharmacyclics Inc., priority 2006, published 2015).
pIC50: −log10 of the molar value. Like-named read-outs stand apart in the source and are kept apart here.

Experiments:
ITK kinase domain = molecular target: T1, ITK kinase domain (Homo sapiens, UniProt Q08881); test: In vitro kinase assay (HITHUNTER enzyme fragment complementation), ITK; format: biochemical
T1 construct: N-terminally His-tagged ITK kinase domain (amino acids 352-617); His (N); made in house
T1 sequence (Q08881 352-617): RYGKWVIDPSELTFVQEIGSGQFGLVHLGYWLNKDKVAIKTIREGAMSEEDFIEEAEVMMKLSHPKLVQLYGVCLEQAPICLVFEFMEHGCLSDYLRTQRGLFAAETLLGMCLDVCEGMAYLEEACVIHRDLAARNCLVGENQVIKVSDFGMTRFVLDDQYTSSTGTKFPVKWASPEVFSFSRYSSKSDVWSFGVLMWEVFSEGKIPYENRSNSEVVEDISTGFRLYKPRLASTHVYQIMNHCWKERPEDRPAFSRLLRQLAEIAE
Method: Compounds were screened using the HITHUNTER™ enzyme fragment complementation method (Discoverx). Briefly, a recombinantly produced, N-terminally His-tagged ITK kinase domain (amino acids 352-617) was incubated with various concentrations of individual compounds. ATP and substrate were added, and the kinase reaction was allowed to proceed for 2-16 hours. Commercially available detection reagents were added and allowed to react for 2-4 hours. The reaction was evaluated by luminescence. Initial results were confirmed using full-length recombinant ITK protein.
In order to confirm the mechanism by which compounds depicted herein interact with the kinase domain of Tec and EGFR kinases, we created a point mutant of the ITK kinase domain, whereby the key amino acid, namely C442 was mutated to alanine. The protein was expressed in a commercial baculovirus expression system using the manufacturer's general protocol (Invitrogen, pBlueBac). Protein was expressed and purified using standard techniques. […] While the activity of WT-ITK was inhibited by compounds depicted in this application, the same compounds had no activity towards the C442A mutant kinase domain.

BTK kinase domain = molecular target: T2, BTK kinase domain (Homo sapiens, UniProt Q06187); test: In vitro kinase assay (HITHUNTER), BTK; format: biochemical
T2 construct: The kinase domains of BTK, LCK and ERK were expressed as recombinant purified proteins; made in house
Description: Similarly, commercially available reagents such as HITHUNTER™ were used to evaluate the effect of compounds on the activity of additional kinases. The kinase domains of BTK, LCK and ERK were expressed as recombinant purified proteins were used for these studies.

[1] = Table 3, Compound, read-out: IC50 ITK

T2 sequence (Q06187 402-655 limits assumed): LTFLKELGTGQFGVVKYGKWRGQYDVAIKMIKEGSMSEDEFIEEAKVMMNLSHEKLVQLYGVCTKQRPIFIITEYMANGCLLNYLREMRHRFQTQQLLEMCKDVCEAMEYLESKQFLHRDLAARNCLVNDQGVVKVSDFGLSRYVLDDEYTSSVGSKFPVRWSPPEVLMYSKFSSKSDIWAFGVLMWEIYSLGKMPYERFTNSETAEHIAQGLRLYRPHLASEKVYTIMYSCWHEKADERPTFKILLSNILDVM

Compound	pIC50 (ITK kinase domain; Table 5, read-out: IC50 ITK)	pIC50 (BTK kinase domain; Table 5)	further results
O=C(CCN1CCN(c2ccccc2)CC1)c1ccc2ccccc2c1			pIC50 (ITK kinase domain; Table 1, ITK, read-out: IC50): 8.37
O=C(CCN1CCOCC1)c1ccc2occc2c1 [drawing 192]			pIC50 (ITK kinase domain; Table 4, read-out: IC50 ITK): 7.12; pIC50 (BTK kinase domain; Table 4): 5.69
O=C(CCN1CCS(=O)(=O)CC1)c1ccc2ccccc2c1	7.18	6.93	
CC(C)N(C)CCC(=O)c1ccc2ccccc2c1	7.79		
CC(C)N(CCC(=O)c1ccc2ccccc2c1)C(C)C [drawing 220]	8.04		
O=C(CCN1CCSCC1)c1ccc2ccccc2c1	7.51	7.15	
O=C(CCN1CCOCC1)c1cnc2ccccc2c1			pIC50 (ITK kinase domain; Table 4, read-out: IC50 ITK): 6.72; pIC50 (BTK kinase domain; Table 4): 7.00
CC(C)C1CCN(CCC(=O)c2ccc3ccccc3c2)C1 (stereo not drawn)			pIC50 (ITK kinase domain; Table 1, ITK, read-out: IC50): 8.16
O=C(CCN1CCCCC1)c1ccc2ccccc2c1	6.27		
O=C(CCN1CCCC1)c1ccc2ccccc2c1 [drawing 184]			pIC50 (ITK kinase domain; Table 4, read-out: IC50 ITK): 7.13
CN(C)C1CCN(CCC(=O)c2ccc3ccccc3c2)C1 (stereo not drawn) [drawing 214]	8.16	7.31	
O=C(CCN1CCOCC1)c1c[nH]c2ccccc12			pIC50 (ITK kinase domain; Table 4, read-out: IC50 ITK): 6.75; pIC50 (BTK kinase domain; Table 4): 5.09
O=C(CCN1CCOCC1)c1ccc2ccccc2c1 [drawing 200]	7.69	7.40	
O=C(CCN1CCC(c2ccccc2)C1)c1ccc2ccccc2c1 (stereo not drawn)			pIC50 (ITK kinase domain; Table 4, read-out: IC50 ITK): 7.64
O=C(CCN1CCOCC1)c1ccc2ccccc2c1 [drawing 117]			pIC50 (ITK kinase domain; Table 1, ITK, read-out: IC50): 7.14
COc1ccc(C(=O)CCN2CCOCC2)cc1[N+](=O)[O-]			pIC50 (ITK kinase domain; Table 2, read-out: IC50 ITK): 7.70
O=C(CCN1CCCCNC1)c1ccc2ccccc2c1	7.06	7.29	
CC(C)N(CCC(=O)c1ccc2ccccc2c1)C(C)C [drawing 179]			pIC50 (ITK kinase domain; Table 3, naphthyl analog, read-out: IC50 ITK): 8.05; pIC50 (BTK kinase domain; Table 3, naphthyl analog): 9.14
CN(C)CCN1CCN(CCC(=O)c2ccc3c(c2)NC(=O)CO3)CC1			pIC50 (ITK kinase domain; [1]): 7.74; pIC50 (BTK kinase domain; Table 3, Compound): 6.32
NC(=O)c1ccc2cc(C(=O)CCN3CCOCC3)ccc2c1 [drawing 198]			pIC50 (ITK kinase domain; Table 4, read-out: IC50 ITK): 8.30; pIC50 (BTK kinase domain; Table 4): 9.00
CN(CCC(=O)c1ccc2ccccc2c1)Cc1ccccc1 [drawing 203]	7.77		
CN(C)C1CCN(CCC(=O)c2ccc3c(c2)NC(=O)CO3)CC1			pIC50 (ITK kinase domain; [1]): 7.89; pIC50 (BTK kinase domain; Table 3, Compound): 6.82
O=C(CCN1CCOCC1)c1ccc2ccccc2n1			pIC50 (ITK kinase domain; Table 4, read-out: IC50 ITK): 7.32; pIC50 (BTK kinase domain; Table 4): 5.30
O=C(CCN1CCOCC1)c1n[nH]c2ccccc12			pIC50 (ITK kinase domain; Table 4, read-out: IC50 ITK): 7.31; pIC50 (BTK kinase domain; Table 4): 6.53
O=C(CCN1CCN(CC2CCCCC2)CC1)c1ccc2ccccc2c1 [drawing 219]	7.83		
CC(C)N(CCC(=O)c1ccc2ccccc2c1)C(C)C [drawing 104]			pIC50 (ITK kinase domain; Table 1, ITK, read-out: IC50): 7.74
CN(CCC(=O)c1ccc2ccccc2c1)Cc1ccccc1 [drawing 107]			pIC50 (ITK kinase domain; Table 1, ITK, read-out: IC50): 7.59
O=C(CCN1CCOCC1)c1csc2ccccc12			pIC50 (ITK kinase domain; Table 4, read-out: IC50 ITK): 6.87; pIC50 (BTK kinase domain; Table 4): 6.21
COc1cc2c(cc1OC)CN(CCC(=O)c1ccc3ccccc3c1)CC2 [drawing 116]			pIC50 (ITK kinase domain; Table 1, ITK, read-out: IC50): 9.07
O=C(CCN1CCN(CC2CCCCC2)CC1)c1ccc2ccccc2c1 [drawing 111]			pIC50 (ITK kinase domain; Table 1, ITK, read-out: IC50): 7.94

Further lines, with some results ahead:

pIC50 (ITK kinase domain; Table 5, read-out: IC50 ITK)	pIC50 (BTK kinase domain; Table 5)	Compound	further results
7.64	6.82	NC(=O)N1CCN(CCC(=O)c2ccc3ccccc3c2)CC1	
7.79		O=C(CCN1Cc2ccccc2C1)c1ccc2ccccc2c1 [drawing 217]	
7.18	7.05	CC(=O)N1CCN(CCC(=O)c2ccc3ccccc3c2)CC1	
7.62		O=C(CCN1CCN(c2ccccn2)CC1)c1ccc2ccccc2c1 [drawing 211]	
7.31	6.91	O=C(CCN1CCC[C@@H]1CO)c1ccc2ccccc2c1	
6.13	6.43	CN(C)C(=O)N1CCC(CNCCC(=O)c2ccc3ccccc3c2)CC1	
6.51		CC1CCN(CCC(=O)c2ccc3ccccc3c2)CC1	
7.44	8.40	O=C(CCNCC1CCN(C(=O)c2ccncc2)CC1)c1ccc2ccccc2c1	
7.25	6.34	CN(C)C(=O)N1CCN(CCC(=O)c2ccc3ccccc3c2)CC1	
6.93	6.39	O=C(CCN1CCNCC1)c1ccc2ccccc2c1	
7.44		O=C(CCN1CCC(c2ccccn2)C1)c1ccc2ccccc2c1 (stereo not drawn)	
7.27	7.74	O=C(CCN1CCN(C(=O)c2ccncc2)CC1)c1ccc2ccccc2c1	
8.02		CN(C)C1CCN(CCC(=O)c2ccc3ccccc3c2)CC1 [drawing 216]	
